Source: patent publication US8003812B2, “C10 cyclopentyl ester substituted taxanes” (priority 2004, dated 2011)
“And” between values parts separate entries of the source, which are not always exact repeats. Equal values may be shown once. Read-outs that look alike come from different tables or passages of the source.

Key:
[1] = system: HT29 (human colon carcinoma) xenograft; conditions: for # Death NTR / # Death TR / MDS to 1.0 g ± SEM (n) / Efficacy Score = 10*(TWd1−TWdn)/TWd1: HT29; for # Death NTR / # Death TR: 6 mice; for Efficacy Score = 10*(TWd1−TWdn)/TWd1: best score 10; for Max. % BW Loss; Day: mouse, in vivo, po
Source text: Score=10*(TWd1−TWdn)/TWd1, where
TWd1=tumor weight on day 1
(§1) TWDn=lowest tumor weight on day 10 or later
(§2) Thus the best score for complete regression would be 10.

[2] = system: HCT 116 human colon carcinoma; test: In vitro cytotoxicity, cell colony formation assay, HCT116; assay type: cell-based; conditions: 72 h drug incubation
Protocol: The cells were incubated in a CO2 incubator at 37° C. for 5 h for attachment to the bottom of Petri dishes. The compound of the present invention was made up fresh in medium at ten times the final concentration, and then 0.3 mL of this stock solution was added to the 2.7 mL of medium in the dish. The cells were then incubated with drugs for 72 h at 37° C. At the end of incubation the drug-containing media were decanted, the dishes were rinsed with 4 mL of Hank's Balance Salt Solution (HBSS), 5 mL of fresh medium was added, and the dishes were returned to the incubator for colony formation. The cell colonies were counted using a colony counter after incubation for 7 days. Cell survival was calculated and the values of IC50 (the drug concentration producing 50% inhibition of colony formation) were determined for each tested compound.

[3] = system: human pancreatic tumor xenograft Panc-1; conditions: for Efficacy Score = 10*(TWd1−TWdn)/TWd1: single dose IV;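 for Tumor Burden Median(n), Day 59 (MTV): Panc-1 fragments grown subcutaneously in athymic nude mice, one oral dose given on Day 1, six mice per group, tumor endpoint 1200 mm^3, control is Group 1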;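 for survival: Panc-1 fragments grown subcutaneously in athymic nude mice, one oral dose given on Day 1, six mice per group, tumor endpoint 1200 mm^3, control is Group 1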
Source text: (§3) [formula] where TTE is expressed in days, endpoint volume is in mm^3, b is the intercept, and m is the slope of the line obtained by linear regression of a log-transformed tumor growth data set. The data set is comprised of the first observation that exceeded the study endpoint volume and the three consecutive observations that immediately preceded the attainment of the endpoint volume. […] Animals classified as TR (treatment-related) deaths or NTRM (non-treatment-related metastasis) deaths are assigned a TTE value equal to the day of death. Animals classified as NTR (non-treatment-related) deaths are excluded from TTE calculations. Treatment efficacy was determined from tumor growth delay (TGD), which is defined as the increase in the median TTE for a treatment group compared to the control group: TGD=T−C, expressed in days, or as a percentage of the median TTE of the control group:
(§4) Treatment may cause partial regression (PR) or complete regression (CR) of the tumor in an animal. In a PR response, the tumor volume is 50% or less of its Day 1 volume for three consecutive measurements during the course of the study, and equal to or greater than 13.5 mm^3 for one or more of these three measurements. In a CR response, the tumor volume is less than 13.5 mm^3 for three consecutive measurements during the course of the study. An animal with a CR response at the termination of a study is additionally classified as a long-term tumor-free survivor (LTTFS).
With respect to toxicity, the animals were weighed daily on Days 1-5, then twice weekly until the completion of the study. The mice were examined frequently for overt signs of any adverse, drug-related side effects. […] The log rank test was employed to analyze the significance of the difference between the TTE values of a drug-treated group and the vehicle-treated control group. The log rank test analyzes the data for all animals except the NTR deaths. The two-tailed statistical analyses were conducted at P=0.05. The group median tumor growth curves show the median tumor volume (MTV) as a function of time. When an animal exited the study due to tumor size or TR death, the final tumor volume recorded for the animal was included with the data used to calculate the median volume at subsequent time points. If more than one death occurred in a treatment group, the tumor growth curve for that group was truncated at the time of the second death.
Human Panc-1 pancreatic carcinomas were maintained in athymic nude mice. A tumor fragment (1 mm^3) was implanted s.c. into the right flank of each test mouse. Tumors were monitored twice weekly and then daily as their size approached 200-400 mm^3 with a mean of 250-300 mm^3. On Day 1 of the study, the animals were sorted into groups of six mice, with tumor sizes of 171.5-486.0 mm^3 and group mean tumor sizes of 269.7-275.0 mm^3. Mice were sorted into groups containing six mice each, and treated according to the protocol in Tables 2A and 2B. All treatments were administered intravenously. Control Group 1 mice received the ethanol 5% and Liposyn II 95% vehicle, once on Day 1 (qd×1). […] Dosing volumes were 0.5 ml/20 g body weight for qd×1 dosing regimens and 0.3 mL/20 g body weight for the qod×5 or q4d×4 dosing schedules. Dosing volumes were scaled to the body weight of each animal. The vehicle was given to Group 1 mice in a single dose on Day 1 (qd×1).

[4] = system: DLD-1 (resistant human colon carcinoma); test: In vitro cytotoxicity, MTT assay, DLD-1; assay type: cell-based
[5] = system: HT29 (human colon carcinoma) xenograft; conditions: for Efficacy Score = 10*(TWd1−TWdn)/TWd1: single dose IV
Source text: Score=10*(TWd1−TWdn)/TWd1, where
TWd1=tumor weight on day 1
as §1, §2

[6] = system: human pancreatic tumor xenograft Panc-1; conditions: for No. of CR / No. of LTTES / No. of PR: 6 mice; for Median TTE: endpoint 1200 mg; for Efficacy Score = 10*(TWd1−TWdn)/TWd1: best score 10; for No. of NTR / No. of TR: mouse, in vivo, po;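 for Tumor Burden Median(n), Day 59 (MTV): Panc-1 fragments grown subcutaneously in athymic nude mice, one oral dose given on Day 1, six mice per group, tumor endpoint 1200 mm^3, control is Group 1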;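 for survival: Panc-1 fragments grown subcutaneously in athymic nude mice, one oral dose given on Day 1, six mice per group, tumor endpoint 1200 mm^3, control is Group 1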
Protocol: The tumor used for this study was maintained in athymic nude mice. A tumor fragment (1 mm^3) was implanted s.c. into the right flank of each test mouse. Tumors were monitored twice weekly and then daily as their volume approached 200-400 mm^3 with a mean of 250-300 mm^3. On Day 1 of the study, the animals were sorted into treatment groups with tumor sizes of 171.5-320.0 mm^3 and group mean tumor sizes of 212.6-216.0 mm^3. Tumor size, in mm^3, was calculated from the following formula:
[formula] where w=width and l=length in mm of the tumor. Tumor weight was estimated with the assumption that 1 mg is equivalent to 1 mm^3 of tumor volume. […] All treatments were administered orally, once on Day 1 (qd×1). […] In all groups, the dosing volume of 0.6 mL/20 g mouse was scaled to the body weight of each animal. Each animal was euthanized when its neoplasm reached the predetermined endpoint size (1200 mm^3). The time to endpoint (TTE) for each mouse was calculated by the following equation:
as §3
[formula] where: • T=median TTE for a treatment group and • C=median TTE for control Group 1.
as §4
With respect to toxicity, the animals were weighed daily on Days 1-5, then twice weekly until the completion of the study. The mice were examined frequently for overt signs of any adverse, drug-related side effects. Acceptable toxicity for the maximum tolerated dose (MTD) of a cancer drug in mice is defined by the NCl as a group mean body-weight (BW) loss of less than 20% during the test, and not more than one toxic death among ten treated animals. The log rank test was employed to analyze the significance of the difference between the TTE values of a drug-treated group and the vehicle-treated control group. The log rank test analyzes the data for all animals except the NTR deaths. The two-tailed statistical analyses were conducted at P=0.05. The group median tumor growth curves show the median tumor volume (MTV) as a function of time. When an animal exited the study due to tumor size or TR death, the final tumor volume recorded for the animal was included with the data used to calculate the median volume at subsequent time points.

[7] = Group 2: 20 mg/kg IV qod × 5, 6 mice
[8] = Group 3: 30 mg/kg IV q4d × 4, 6 mice
[9] = Group 4: 120 mg/kg IV qd × 1, 6 mice
[10] = Group 5: 60 mg/kg IV qd × 5 (Table 2A), 6 mice
[11] = Group 5: 120 mg/kg IV QD × 1 in 5% E-95% I-20, 6 mice
[12] = Group 6: 60 mg/kg IV QD × 1 in 5% E-95% I-20, 6 mice
[13] = Group 7: 120 mg/kg IV QD × 1 in 5% ET in Saline, 6 mice
[14] = Group 8: 60 mg/kg IV QD × 1 in 5% ET in Saline, 6 mice
[15] = Group 9: 120 mg/kg IV QD × 1 in 5% EC in Saline, 6 mice
[16] = Group 10: 60 mg/kg IV QD × 1 in 5% EC in Saline, 6 mice
[17] = Group 14: 30 mg/kg IV Q4d × 4 in 5% E-95% I-20, 6 mice
[18] = Group 15: 20 mg/kg IV Q4d × 4 in 5% E-95% I-20, 6 mice
[19] = Group 16: 30 mg/kg IV Q4d × 4 in 5% ET in Saline, 6 mice
[20] = Group 17: 20 mg/kg IV Q4d × 4 in 5% ET in Saline, 6 mice
[21] = Group 18: 30 mg/kg IV Q4d × 4 in 5% EC in Saline, 6 mice
[22] = Group 19: 20 mg/kg IV Q4D × 4 in 5% EC in Saline, 6 mice
[23] = Panc-1, Group 2: 120 mg/kg po qd × 1
[24] = Panc-1, Group 2: 120 mg/kg po qd × 1, 120 mg/kg
[25] = Panc-1, Group 3: 60 mg/kg po qd × 1
[26] = Panc-1, Group 3: 60 mg/kg po qd × 1, 60 mg/kg

CC(=O)OC12COC1CC(O)C1(C)C(=O)C(OC(=O)C3CCCC3)C3=C(C)C(OC(=O)C(O)C(NC(=O)OC(C)C)c4cccs4)CC(O)(C(OC(=O)c4ccccc4)C21)C3(C)C (stereo not drawn) [Compound 9091]
# Death NTR ([1]; Group 18: 15 mg/kg po q4d × 4): 0
# Death TR ([1]; Group 18: 15 mg/kg po q4d × 4): 0
MDS to 1.0 g ± SEM (n) ([1]; Group 18: 15 mg/kg po q4d × 4, n=6): 24.4 ± 1.4 (6)
# Death NTR ([1]; Group 19: 30 mg/kg po q4d × 4): 0
# Death TR ([1]; Group 19: 30 mg/kg po q4d × 4): 0
MDS to 1.0 g ± SEM (n) ([1]; Group 19: 30 mg/kg po q4d × 4, n=1): 25.6 ± (1)
# Death NTR ([1]; Group 20: 45 mg/kg po q4d × 4): 0
# Death TR ([1]; Group 20: 45 mg/kg po q4d × 4): 0
# Death NTR ([1]; Group 21: 60 mg/kg po q4d × 4): 0
# Death TR ([1]; Group 21: 60 mg/kg po q4d × 4): 4
Efficacy Score = 10*(TWd1−TWdn)/TWd1 ([1]; single dose oral 60 mg/kg): 4.3
Efficacy Score = 10*(TWd1−TWdn)/TWd1 ([1]; single dose oral 120 mg/kg): 8.7
Max. % BW Loss; Day ([1]; 30 mg/kg): −11.3%;
Max. % BW Loss; Day ([1]; 45 mg/kg): −22.6%;
Max. % BW Loss; Day ([1]; 60 mg/kg): −28.1%;
IC50 [2]: 0.6 nM and 0.63 nM
antitumor effectiveness among IV regimens ([3]; 30 mg/kg q4d×4 IV regimen): most effective
No. of CR [3, 7]: 0
No. of LTTES [3, 7]: 0
No. of NTR [3, 7]: 0
No. of PR [3, 7]: 1
No. of TR [3, 7]: 5
Max % BW Loss; Day ([3]; Group 2: 20 mg/kg IV qod × 5, Day 10): −15.7%;
Tumor Burden Median (n), Day 56 ([3]; Group 2: 20 mg/kg IV qod × 5, n=1): 108 (1) mm^3
Median TTE ([3]; Group 2: 20 mg/kg IV qod × 5, not evaluable for efficacy (five TR deaths)): 10.0 days
T − C ([3]; Group 3: 30 mg/kg IV q4d × 4): 40.2 days
% TGD ([3]; Group 3: 30 mg/kg IV q4d × 4, 30 mg/kg): 254%
No. of CR [3, 8]: 1
No. of LTTES [3, 8]: 1
No. of NTR [3, 8]: 0
No. of PR [3, 8]: 5
No. of TR [3, 8]: 0
Tumor Burden Median (n), Day 56 (MTV) ([3]; Group 3: 30 mg/kg IV q4d × 4, Day 56): 40 mm^3
Tumor Burden Median (n), Day 56 (MTV) ([3]; Group 3: 30 mg/kg IV q4d × 4, Day 56, 30 mg/kg): 40.25 (6) mm^3
Median TTE ([3]; Group 3: 30 mg/kg IV q4d × 4, endpoint 1200 mg): 56.0 days
T − C ([3]; Group 4: 120 mg/kg IV qd × 1): 40.2 days
% TGD ([3]; Group 4: 120 mg/kg IV qd × 1, 120 mg/kg): 254%
No. of CR [3, 9]: 0
No. of LTTES [3, 9]: 0
No. of NTR [3, 9]: 2
No. of PR [3, 9]: 6
No. of TR [3, 9]: 0
Tumor Burden Median (n), Day 56 (MTV) ([3]; Group 4: 120 mg/kg IV qd × 1, Day 56, 120 mg/kg): 58 mm^3 and 57.5 (6) mm^3
Median TTE ([3]; Group 4: 120 mg/kg IV qd × 1, endpoint 1200 mg): 56.0 days
T − C ([3]; Group 5: 60 mg/kg IV qd × 5 (Table 2A)): 40.2 days
% TGD ([3]; Group 5: 60 mg/kg IV qd × 5 (Table 2A), 60 mg/kg): 254%
No. of CR [3, 10]: 0
No. of LTTES [3, 10]: 0
No. of NTR [3, 10]: 0
No. of PR [3, 10]: 6
No. of TR [3, 10]: 0
Tumor Burden Median (n), Day 56 (MTV) ([3]; Group 5: 60 mg/kg IV qd × 5 (Table 2A), Day 56, 60 mg/kg): 126 mm^3 and 126 (6) mm^3
Median TTE ([3]; Group 5: 60 mg/kg IV qd × 5 (Table 2A), endpoint 1200 mg): 56.0 days
end-of-study survivors ([3]; each of 30 mg/kg q4d×4, 120 mg/kg and 60 mg/kg single dose IV, 6 mice per group): six
Efficacy Score = 10*(TWd1−TWdn)/TWd1 ([3]; Dose 60, best score 10): 7.7
Efficacy Score = 10*(TWd1−TWdn)/TWd1 ([3]; Dose 120, best score 10): 8.6
IC50 [4]: 1.5 nM
# Death NTR [5, 11]: 0
# Death TR [5, 11]: 0
MDS to 1.0 g ± SEM (n) ([5]; Group 6: 60 mg/kg IV QD × 1 in 5% E-95% I-20): 51.9 ± 0.0
# Death NTR [5, 12]: 0
# Death TR [5, 12]: 0
# Death NTR [5, 13]: 0
# Death TR [5, 13]: 5
MDS to 1.0 g ± SEM (n) ([5]; Group 8: 60 mg/kg IV QD × 1 in 5% ET in Saline): 51.8±
# Death NTR [5, 14]: 0
# Death TR [5, 14]: 0
# Death NTR [5, 15]: 0
# Death TR [5, 15]: 0
MDS to 1.0 g ± SEM (n) ([5]; Group 10: 60 mg/kg IV QD × 1 in 5% EC in Saline): 46.0±
# Death NTR [5, 16]: 0
# Death TR [5, 16]: 0
# Death NTR [5, 17]: 0
# Death TR [5, 17]: 0
# Death NTR [5, 18]: 0
# Death TR [5, 18]: 0
# Death NTR [5, 19]: 0
# Death TR [5, 19]: 0
# Death NTR [5, 20]: 0
# Death TR [5, 20]: 0
# Death NTR [5, 21]: 0
# Death TR [5, 21]: 0
# Death NTR [5, 22]: 0
# Death TR [5, 22]: 0
Efficacy Score = 10*(TWd1−TWdn)/TWd1 ([5]; Dose 60, best score 10): 8
Efficacy Score = 10*(TWd1−TWdn)/TWd1 ([5]; Dose 120, best score 10): 8.7
T − C [6, 23]: 40.1 days
% TGD [6, 24]: 212%
No. of CR [6, 23]: 3
No. of LTTES [6, 23]: 3
No. of PR [6, 23]: 3
Tumor Burden Median(n), Day 59 (MTV) [6, 24]: 56 mm^3 and 56 (6) mm^3
Median TTE [6, 23]: 59.0 days
T − C [6, 25]: 40.1 days
% TGD [6, 26]: 212%
No. of CR [6, 25]: 1
No. of LTTES [6, 25]: 1
No. of PR [6, 25]: 5
Tumor Burden Median(n), Day 59 (MTV) [6, 26]: 148 mm^3 and 148 (6) mm^3
Median TTE [6, 25]: 59.0 days
survival ([6]; Panc-1, at both the 120 and 60 mg/kg dose, po qd × 1): 100%
regression responses ([6]; Panc-1, at both the 120 and 60 mg/kg dose, po qd × 1, 6 mice per group): six
Efficacy Score = 10*(TWd1−TWdn)/TWd1 ([6]; Panc-1, single dose oral 60 mg/kg): 8.3
Efficacy Score = 10*(TWd1−TWdn)/TWd1 ([6]; Panc-1, single dose oral 120 mg/kg): 9.1
No. of NTR ([6]; 60 mg/kg): 0
No. of TR ([6]; 60 mg/kg): 0
No. of NTR ([6]; 120 mg/kg): 0
No. of TR ([6]; 120 mg/kg): 0
